Experiments:
Type in all cases: cell-based, human
TOP1 mRNA [1] = experiment: Inhibitory effect of siTOP1 on TOP1 mRNA in A375 cells (Lipofectamine RNAiMAX transfection, Q-PCR); details: A375, siRNA 50 nM, 48 h after transfection; for Relative expression level of gene, mean value: Blank = 100.00, GAPDH reference
Method: • 1) On the day before transfection, A375 melanoma cells were seeded into a 24-well plate at 6×10^4 to 8×10^4 cells/well, the culture medium being 500 μL of DMEM containing 10% FBS and 1% Penicillin-Streptomycin, and the plate was placed in an incubator with 5% CO2 at 37° C. for 24 h to allow the cells to adhere to the wall. Three replicate wells were made for each group. • 2) On the day of transfection, the culture medium was changed to 450 μL of DMEM culture medium without antibiotics (containing 10% FBS). • 3) The siRNAs were diluted with 25 μL of Opti-MEM culture medium; the siNC (the siNC (reference: O Sordet et al., 2008) having the target sequence of 5′-TTCTCCGAACGTGTCACGT-3′ (SEQ ID NO: 46)) at the same concentration was the negative control group; Lipofectamine™ RNAiMAX (Lipo) transfection reagent was diluted with another 25 μL of Opti-MEM culture medium and left to stand at room temperature for 5 min; and the two dilutions were uniformly mixed and left to stand at room temperature for 5 min. • 4) 50 μL of the mixed solution described above was added to each well to obtain a final transfection volume of 500 μL. and the working concentration of the siRNA was 50 nM. • 5) After the transfection, the cells were cultured for 48 h and then collected.
• 1) RNA was extracted using an Eastep™ Super total RNA extraction kit; 300 μL of RNA lysis solution and 300 μL of RNA diluent were added; and the mixture was uniformly mixed and then transferred to a 1.5 mL centrifuge tube. • 2) The mixture was centrifuged at 14000 g for 5 min, and the supernatant was carefully pipetted into a new 1.5 mL centrifuge tube. • 3) A 0.5-fold volume of absolute ethanol was added, and the mixture was uniformly mixed by allowing the tube to be repeatedly upside down 15-20 times. Subsequently, the mixture was transferred to a centrifuge column and centrifuged at 12000 g for 1 min. The filtrate was discarded. • 4) 600 μL of RNA wash buffer was added, and the mixture was centrifuged at 12000 g for 1 min. The filtrate was discarded. • 5) 50 μL of DNase I incubation buffer was added, followed by DNA digestion at room temperature for 15 min. • 6) 600 μL of RNA wash buffer was added, the mixture was centrifuged at 12000 g for 1 min, and the filtrate was discarded. This procedure was repeated once. • 7) The mixture was centrifuged at 14000 g for 2 min to remove the residual RNA wash buffer, and then the centrifuge column was placed in a collection tube. • 8) An appropriate amount of RNase-free H2O was added, and the mixture was left to stand at room temperature for 12 min and centrifuged at 14000 g for 1 min. The collected RNA was preserved at −70° C. for later use.
• 1) The mass and concentration of the RNA were detected using NanoDrop™, and an RNA template was prepared as follows: RNase-free H2O was added to 1 μg of RNA to a volume of 10 μL; the mixture was placed at 70° C. for 5 min and then placed in an ice bath for 5 min for later use. • 2) A reaction system was established according to Table 2:
• 3) The reaction system described above was uniformly mixed and centrifuged to collect the liquid at the bottom of a tube, and the mixture was subjected to the procedures of 25° C. for 5 min, 42° C. for 60 min, and 72° C. for 15 min, thereby giving the cDNA product. • 4) A Q-PCR system was prepared according to Table 3, and the level of TOP1 gene was detected:
GAPDH was used as an endogenous reference, and the sequences of the primers used for detection are as follows: […]

A375 melanoma cells = experiment: Inhibition of A375 cell proliferation by siTOP1 (CCK-8); details: A375, siRNA 50 nM, 72 h
Method: • 1) On the day before transfection, A375 melanoma cells were seeded into a 96-well plate at 2500-3000 cells/well, the culture medium being a total volume of 200 μL of DMEM culture medium containing 7.5% FBS and 1% Penicillin-Streptomycin, and the plate was placed in an incubator with 5% CO2 at 37° C. for 24 h to allow the cells to adhere to the wall. 5 replicate wells were made for each group. • 2) On the day of transfection, the culture medium was changed to 90 μL of reduced serum culture medium without antibiotics and containing 7.5% FBS. • 3) The siRNAs were diluted with an appropriate amount of Opti-MEM culture medium; Lipofectamine™ RNAiMAX (Lipo) transfection reagent was diluted with another appropriate amount of Opti-MEM culture medium and left to stand at room temperature for 5 min; and the two dilutions were uniformly mixed and left to stand at room temperature for 5 min. • 4) 10 μL of the mixed solution described above was added to each well to obtain a final transfection volume of 100 μL, and the working concentration of the siRNA was 50 nM. • 5) The cells were cultured in the incubator with 5% CO2 at 37° C. for 72 h.
After 72 h of transfection, 10 μL of CCK-8 solution was added to each well, and the cells were cultured in the incubator with 5% CO2 at 37° C. for another 4 h. The absorbance value at 450 nm was measured using a microplate reader. Cell viability was calculated according to the following formula: […]

TOP1 mRNA [2] = experiment: Inhibitory effects of modified sequences of siTOP1-1604 on TOP1 mRNA in PC-3 cells; details: PC-3, siRNA 50 nM, 48 h after transfection, Blank = 100.00
Method: PC-3 human prostate cancer cells were transfected with the modified siTOP1 according to the method in Example 2 at a siRNA working concentration of 50 nM. TOP1 mRNA levels were detected 48 h after the transfection. The control groups were Blank (Opti-MEM at the equal volume), Lipofectamine™ RNAiMAX (Lipo) transfection reagent, and the positive control unmodified siTOP-1604.

For “siTOP1-896: siRNA targeting TOP1; target SEQ ID NO: 3, sense strand SEQ ID NO: 18, antisense strand SEQ ID NO: 33 (sense GGAAAUUCCUAGAACAUAAUU; antisense UUAUGUUCUAGGAAUUUCCUU; modified_base 20..21 OTHER; thymine)”, the “Relative expression level of gene, mean value” (TOP1 mRNA [1]) was 13.05.

“siTOP1-267: siRNA targeting TOP1; target SEQ ID NO: 1, sense strand SEQ ID NO: 16, antisense strand SEQ ID NO: 31 (sense CAACGAUUCCCAGAUCGAAUU; antisense UUCGAUCUGGGAAUCGUUGUU; modified_base 20..21 OTHER; thymine)” was tested, and the “Cell viability (%), mean value” (A375 melanoma cells) was 58.27%, the “Inhibition of A375 cell proliferation compared to Blank” value (A375 melanoma cells) was “about 42%” and the “Relative expression level of gene, mean value” (TOP1 mRNA [1]) was 21.85.

“siTOP1-1357: siRNA targeting TOP1; target SEQ ID NO: 6, sense strand SEQ ID NO: 21, antisense strand SEQ ID NO: 36 (sense GGCAUGCUGAAGAGACGAAUU; antisense UUCGUCUCUUCAGCAUGCCUU; modified_base 20..21 OTHER; thymine)” was tested, and the “Relative expression level of gene, mean value” (TOP1 mRNA [1]) was 19.62.

“siTOP1-1679: siRNA targeting TOP1; target SEQ ID NO: 11, sense strand SEQ ID NO: 26, antisense strand SEQ ID NO: 41 (sense CCCUGUACUUCAUCGACAAUU; antisense UUGUCGAUGAAGUACAGGGUU; modified_base 20..21 OTHER; thymine)” was tested, and the “Inhibition of TOP1 expression” value (TOP1 mRNA [1]) was 91.1% and the “Relative expression level of gene, mean value” (TOP1 mRNA [1]) was 8.86.

“siTOP1-1630: siRNA targeting TOP1; target SEQ ID NO: 10, sense strand SEQ ID NO: 25, antisense strand SEQ ID NO: 40 (sense CGAGAAGACUGGAAGUCCAUU; antisense UGGACUUCCAGUCUUCUCGUU; modified_base 20..21 OTHER; thymine)” was tested, and the “Cell viability (%), mean value” (A375 melanoma cells) was 43.84%, the “Inhibition of A375 cell proliferation compared to Blank” value (A375 melanoma cells) was “about 56%” and the “Relative expression level of gene, mean value” (TOP1 mRNA [1]) was 17.34.

For “siTOP1-1282: siRNA targeting TOP1; target SEQ ID NO: 5, sense strand SEQ ID NO: 20, antisense strand SEQ ID NO: 35 (sense CACAAAGAGAGGAUUGCUAUU; antisense UAGCAAUCCUCUCUUUGUGUU; modified_base 20..21 OTHER; thymine)”, the “Inhibition of TOP1 expression” value (TOP1 mRNA [1]) was 93.4% and the “Relative expression level of gene, mean value” (TOP1 mRNA [1]) was 6.64.

For “siTOP1-1604-m1: Methylation-modified siTOP1-1604; sense strand SEQ ID NO: 51, antisense strand SEQ ID NO: 52 (sense GUGUGGACAAGAUCCGGAATT; antisense UUCCGGAUCUUGUCCACACTT; DNA at T, 2'-O-methyl at CU, RNA at AG, backbone not given here)”, the “Relative expression level, mean value” (TOP1 mRNA [2]) was 71.77.

With “siTOP1-628: siRNA targeting TOP1; target SEQ ID NO: 2, sense strand SEQ ID NO: 17, antisense strand SEQ ID NO: 32 (sense CCUCCUAAAGAGGAUAUAAUU; antisense UUAUAUCCUCUUUAGGAGGUU; modified_base 20..21 OTHER; thymine)” the “Relative expression level of gene, mean value” (TOP1 mRNA [1]) was 24.27.

For “siTOP1-2273: siRNA targeting TOP1; target SEQ ID NO: 13, sense strand SEQ ID NO: 28, antisense strand SEQ ID NO: 43 (sense AGGAUGCAAAGACGAAGAAUU; antisense UUCUUCGUCUUUGCAUCCUUU; modified_base 20..21 OTHER; thymine)”, the “Relative expression level of gene, mean value” (TOP1 mRNA [1]) was 12.54.

With “siTOP1-2585: siRNA targeting TOP1; target SEQ ID NO: 14, sense strand SEQ ID NO: 29, antisense strand SEQ ID NO: 44 (sense GGUUUGGGAAAGAUGGAUAUU; antisense UAUCCAUCUUUCCCAAACCUU; modified_base 20..21 OTHER; thymine)” the “Inhibition of TOP1 expression” value (TOP1 mRNA [1]) was 91.2% and the “Relative expression level of gene, mean value” (TOP1 mRNA [1]) was 8.84.

For “siTOP1-1530: siRNA targeting TOP1; target SEQ ID NO: 8, sense strand SEQ ID NO: 23, antisense strand SEQ ID NO: 38 (sense GCUUAACCCUAGUUCACGAUU; antisense UCGUGAACUAGGGUUAAGCUU; modified_base 20..21 OTHER; thymine)”, the “Inhibition of TOP1 expression” value (TOP1 mRNA [1]) was 90.6% and the “Relative expression level of gene, mean value” (TOP1 mRNA [1]) was 9.44.

In the case of “siTOP1-2898: siRNA targeting TOP1; target SEQ ID NO: 15, sense strand SEQ ID NO: 30, antisense strand SEQ ID NO: 45 (sense CGAUUAUAUUGGUGCGUUUUU; antisense AAACGCACCAAUAUAAUCGUU; modified_base 20..21 OTHER; thymine)”, the “Inhibition of TOP1 expression” value (TOP1 mRNA [1]) is reported as 93.0% and the “Relative expression level of gene, mean value” (TOP1 mRNA [1]) is reported as 7.05.

With “siTOP1-1459: siRNA targeting TOP1; target SEQ ID NO: 7, sense strand SEQ ID NO: 22, antisense strand SEQ ID NO: 37 (sense CGGCAUGAUAACAAGGUUAUU; antisense UAACCUUGUUAUCAUGCCGUU; modified_base 20..21 OTHER; thymine)” the “Inhibition of TOP1 expression” value (TOP1 mRNA [1]) was 90.1% and the “Relative expression level of gene, mean value” (TOP1 mRNA [1]) was 9.89.

“siTOP1-1776: siRNA targeting TOP1; target SEQ ID NO: 12, sense strand SEQ ID NO: 27, antisense strand SEQ ID NO: 42 (sense GCACAUCAAUCUACACCCAUU; antisense UGGGUGUAGAUUGAUGUGCUU; modified_base 20..21 OTHER; thymine)” was tested, and the “Inhibition of TOP1 expression” value (TOP1 mRNA [1]) was 92.6% and the “Relative expression level of gene, mean value” (TOP1 mRNA [1]) was 7.41.

With “siTOP1-1261: siRNA targeting TOP1; target SEQ ID NO: 4, sense strand SEQ ID NO: 19, antisense strand SEQ ID NO: 34 (sense GGAUUCUGUAUUAUGGAUAUU; antisense UAUCCAUAAUACAGAAUCCUU; modified_base 20..21 OTHER; thymine)” the “Relative expression level of gene, mean value” (TOP1 mRNA [1]) was 17.75.
